Bridge positions count the residues as written; N and C are the ends. Peptide text beside a SMILES is read from it.
Tested on: Single-donor human red blood cells
Experiment: Hemolysis assay
Type: cell-based
Details: not given
Procedure: Single-donor human red blood cells (Innovative Research, no. IWB3ALS) were washed in PBS and adjusted to a concentration of 1 × 10^9 cells/ml. Each peptide was added individually to 200 μl of cells at a concentration of either 300 μg/ml (SySA library) or 128 μg/ml (SySA-5 optimization library) in a 96-well polypropylene plate (Corning, 3879). PBS alone and 1% Triton X-100 were used for background normalization and 100% hemolysis, respectively. Each reaction was set up in triplicate. Plates were incubated for 3 hours at 37°C. Following incubation, samples were centrifuged at 800g for 20 min, and 100 μl of supernatant was transferred to a flat-bottom 96-well plate (Genesse, 25-104). Percent hemolysis for each sample was determined by normalizing the absorbance at 540 nm for each sample to the average background and dividing by the average absorbance for 1% Triton X-100 (100% hemolysis). Error bars represent 1 SD of triplicate samples.

| Molecule | %Hemo |
| --- | --- |
| CC(C)C[C@@H]1NC(=O)[C@H](CCCNC(=N)N)NC(=O)[C@H](CCCNC(=N)N)NC(=O)[C@H](CCCNC(=N)N)NC(=O)CNC(=O)[C@H](CC(N)=O)NC(=O)[C@H](CC(N)=O)NC(=O)[C@H](CC(C)C)NC(=O)[C@H](CCCNC(=N)N)NC(=O)[C@H](C(C)C)NC(=O)[C@H](CCCNC(=N)N)NC(=O)[C@H](C(C)C)NC(=O)[C@@H](N)CSSC[C@@H](C(=O)O)NC(=O)[C@H](C(C)C)NC(=O)[C@H](CCC(N)=O)NC(=O)[C@H](CC(C)C)NC(=O)[C@H](CO)NC(=O)[C@H](C(C)C)NC(=O)[C@H](CCCCN)NC1=O [SyPA-1] (H-CVRVRLNNGRRRLKVSLQVC-OH; disulfide 1-20) | 1.30% |
| CC(C)C[C@@H]1NC(=O)CNC(=O)[C@H](CCCNC(=N)N)NC(=O)[C@H](CCCNC(=N)N)NC(=O)[C@H](CCCNC(=N)N)NC(=O)[C@H](CC(N)=O)NC(=O)[C@H](CC(N)=O)NC(=O)[C@H](CC(C)C)NC(=O)[C@H](CCCNC(=N)N)NC(=O)[C@H](C(C)C)NC(=O)[C@H]([C@@H](C)O)NC(=O)[C@H](C(C)C)NC(=O)[C@@H](N)CSSC[C@@H](C(=O)O)NC(=O)[C@H](C(C)C)NC(=O)[C@H](CCC(N)=O)NC(=O)[C@H](CC(C)C)NC(=O)[C@H](CO)NC(=O)[C@H](C(C)C)NC(=O)[C@H](CCCNC(=N)N)NC1=O [SyPA-2] (H-CVTVRLNNRRRGLRVSLQVC-OH; disulfide 1-20) | 3.75% |
| CC[C@H](C)[C@@H]1NC(=O)[C@H](CCCNC(=N)N)NC(=O)[C@H](CC(C)C)NC(=O)[C@@H](N)CSSC[C@@H](C(=O)O)NC(=O)[C@H](C(C)C)NC(=O)[C@H](CCC(N)=O)NC(=O)[C@H](C(C)C)NC(=O)[C@H](CO)NC(=O)[C@H](C(C)C)NC(=O)[C@H](CCCNC(=N)N)NC(=O)[C@H](CC(C)C)NC(=O)CNC(=O)[C@H](CCCNC(=N)N)NC(=O)[C@H](CCCNC(=N)N)NC(=O)CNC(=O)[C@H](CC(N)=O)NC(=O)[C@H](CC(N)=O)NC(=O)[C@H](CC(C)C)NC(=O)[C@H](CCCNC(=N)N)NC1=O [SyPA-4] (H-CLRIRLNNGRRGLRVSVQVC-OH; disulfide 1-20) | 1.59% |

Tested on: Escherichia coli W3110
Experiment: not given
Type: cell-based
Details: W3110

| Molecule | MIC | W3110 MIC MH | W3110 MIC RPMI |
| --- | --- | --- | --- |
| Protegrin-1 [reference compound] | 0.5 to 4 mg/L | 0.5 mg/L | 0.5 mg/L |

Tested on: Acinetobacter baumannii AB5075
Experiment: not given
Details: 100% fetal bovine serum; median of triplicate
Procedure: MICs were performed by a modifiedClinical and Laboratory Standards Institute) procedure. […] Separately, E. coli W3110 or A. baumannii AB5075 was grown overnight in 5 ml of standard MH at 37°C. Cells from these cultures were diluted to a concentration of 5 × 10^5 to 6 × 10^5 cells/ml in either standard MH, MHII, RPMI, or fetal bovine serum, and 90 μl was added to each well of the 96-well plate containing diluted peptide. Plates were wrapped twice in parafilm and incubated at 37°C for 18 to 24 hours. Wells were examined by eye against wells with no bacteria for signs of growth. MICs were reported as the minimum concentration with no observable growth. In cases where triplicate samples differed, the concentration supported by the median of the three replicates was reported. […]
For consistency, all SynCH peptides were resuspended at 10 mg/ml in water. Peptides were then visually inspected for any lack of solubility (Data File S1). […]
We had this library commercially synthesized and tested its ability to inhibit the growth of Acinetobacter baumannii AB5075, a clinically isolated Carbapenem Resistant Acinetobacter (CRA) pathogen. MICs were performed in MH as well as 100% FBS, which is likely more representative of the in vivo environment. […]

| Molecule | AB5075 MIC FBS |
| --- | --- |
| Protegrin-1 [reference compound] | 32 mg/L |

Same assay, conditions: AB5075

| Molecule | AB5075 MIC FBS | AB5075 MIC MH |
| --- | --- | --- |
| CC(C)C[C@@H]1NC(=O)[C@H](CO)NC(=O)[C@H](C(C)C)NC(=O)[C@H](CCCCN)NC(=O)[C@H](C(C)C)NC(=O)[C@H](CCCNC(=N)N)NC(=O)CNC(=O)[C@H](CCCNC(=N)N)NC(=O)[C@H](CCCNC(=N)N)NC(=O)[C@H](CC(N)=O)NC(=O)[C@H](CCCNC(=N)N)NC(=O)[C@H](CC(C)C)NC(=O)[C@H](CCCNC(=N)N)NC(=O)[C@H](C(C)C)NC(=O)[C@H](CCCNC(=N)N)NC(=O)[C@@H](N)CSSC[C@@H](C(=O)O)NC(=O)[C@H](CCCNC(=N)N)NC1=O [SySA-5.6] (H-CRVRLRNRRGRVKVSLRC-OH; disulfide 1-18) | 128 mg/L | 4 mg/L |
| CC(C)C[C@@H]1NC(=O)[C@H](CCCNC(=N)N)NC(=O)[C@H](C(C)C)NC(=O)[C@H](CCCCN)NC(=O)[C@H](C(C)C)NC(=O)[C@H](CCCNC(=N)N)NC(=O)[C@H](CCCNC(=N)N)NC(=O)[C@H](CCCNC(=N)N)NC(=O)[C@H](CCCNC(=N)N)NC(=O)[C@H](CC(N)=O)NC(=O)[C@H](CCCNC(=N)N)NC(=O)[C@H](CC(C)C)NC(=O)[C@H](CCCNC(=N)N)NC(=O)[C@H](C(C)C)NC(=O)[C@H](CCCNC(=N)N)NC(=O)[C@@H](N)CSSC[C@@H](C(=O)O)NC(=O)[C@H](CCCNC(=N)N)NC1=O [SySA-5.7] (H-CRVRLRNRRRRVKVRLRC-OH; disulfide 1-18) | > 128 mg/L | 8 mg/L |
| CC(C)C[C@@H]1NC(=O)[C@H](CO)NC(=O)[C@H](C(C)C)NC(=O)[C@H](CCCCN)NC(=O)[C@H](CCCNC(=N)N)NC(=O)CNC(=O)[C@H](CCCNC(=N)N)NC(=O)[C@H](CCCNC(=N)N)NC(=O)[C@H](CC(N)=O)NC(=O)[C@H](CC(C)C)NC(=O)[C@H](CCCNC(=N)N)NC(=O)[C@H](C(C)C)NC(=O)[C@H](CCCNC(=N)N)NC(=O)[C@H](CC(C)C)NC(=O)[C@@H](N)CSSC[C@@H](C(=O)O)NC(=O)[C@H](C(C)C)NC(=O)[C@H](CCC(N)=O)NC1=O [SySA-5.10] (H-CLRVRLNRRGRKVSLQVC-OH; disulfide 1-18) | 128 mg/L | 4 mg/L |
| CC(C)C[C@@H]1NC(=O)[C@H](CCCNC(=N)N)NC(=O)[C@H](C(C)C)NC(=O)[C@H](CCCCN)NC(=O)[C@H](CCCNC(=N)N)NC(=O)CNC(=O)[C@H](CCCNC(=N)N)NC(=O)[C@H](CCCNC(=N)N)NC(=O)[C@H](CCCNC(=N)N)NC(=O)[C@H](CC(C)C)NC(=O)[C@H](CCCNC(=N)N)NC(=O)[C@H](C(C)C)NC(=O)[C@H](CCCNC(=N)N)NC(=O)[C@H](CC(C)C)NC(=O)[C@@H](N)CSSC[C@@H](C(=O)O)NC(=O)[C@H](C(C)C)NC(=O)[C@H](CCC(N)=O)NC1=O [SySA-5.11] (H-CLRVRLRRRGRKVRLQVC-OH; disulfide 1-18) | 64 mg/L | 4 mg/L |
| CC(C)C[C@@H]1NC(=O)[C@H](CO)NC(=O)[C@H](C(C)C)NC(=O)[C@H](CCCCN)NC(=O)[C@H](CCCNC(=N)N)NC(=O)[C@H](CCCNC(=N)N)NC(=O)[C@H](CCCNC(=N)N)NC(=O)[C@H](CC(N)=O)NC(=O)[C@H](CC(C)C)NC(=O)[C@H](CCCNC(=N)N)NC(=O)[C@H](C(C)C)NC(=O)[C@H](CCCNC(=N)N)NC(=O)[C@H](CC(C)C)NC(=O)[C@@H](N)CSSC[C@@H](C(=O)O)NC(=O)[C@H](C(C)C)NC(=O)[C@H](CCC(N)=O)NC1=O [SySA-5.18] (H-CLRVRLNRRRKVSLQVC-OH; disulfide 1-17) | 128 mg/L | 8 mg/L |
| CC(C)C[C@@H]1NC(=O)[C@H](CCCNC(=N)N)NC(=O)[C@H](C(C)C)NC(=O)[C@H](CCCCN)NC(=O)[C@H](CCCNC(=N)N)NC(=O)[C@H](CCCNC(=N)N)NC(=O)[C@H](CCCNC(=N)N)NC(=O)[C@H](CCCNC(=N)N)NC(=O)[C@H](CC(C)C)NC(=O)[C@H](CCCNC(=N)N)NC(=O)[C@H](C(C)C)NC(=O)[C@H](CCCNC(=N)N)NC(=O)[C@H](CC(C)C)NC(=O)[C@@H](N)CSSC[C@@H](C(=O)O)NC(=O)[C@H](C(C)C)NC(=O)[C@H](CCC(N)=O)NC1=O [SySA-5.19] (H-CLRVRLRRRRKVRLQVC-OH; disulfide 1-17) | > 128 mg/L | 4 mg/L |
| CC(C)C[C@@H]1NC(=O)[C@H](CCCNC(=N)N)NC(=O)[C@H](C(C)C)NC(=O)[C@H](CCCCN)NC(=O)[C@H](CCCNC(=N)N)NC(=O)[C@H](CCCNC(=N)N)NC(=O)[C@H](CCCNC(=N)N)NC(=O)[C@H](CCCNC(=N)N)NC(=O)[C@H](CC(C)C)NC(=O)[C@H](CCCNC(=N)N)NC(=O)[C@H](C(C)C)NC(=O)[C@H](CCCNC(=N)N)NC(=O)[C@H](CC(C)C)NC(=O)[C@@H](N)CSSC[C@@H](C(=O)O)NC(=O)[C@H](C(C)C)NC(=O)[C@H](CCCNC(=N)N)NC1=O [SySA-5.20] (H-CLRVRLRRRRKVRLRVC-OH; disulfide 1-17) | 128 mg/L | 4 mg/L |
| CC(C)C[C@@H]1NC(=O)[C@H](CO)NC(=O)[C@H](C(C)C)NC(=O)[C@H](CCCCN)NC(=O)[C@H](CCCNC(=N)N)NC(=O)CNC(=O)[C@H](CCCNC(=N)N)NC(=O)[C@H](CCCNC(=N)N)NC(=O)[C@H](CC(N)=O)NC(=O)[C@H](CC(C)C)NC(=O)[C@H](CCCNC(=N)N)NC(=O)[C@H](C(C)C)NC(=O)[C@H](CCCNC(=N)N)NC(=O)[C@@H](N)CSSC[C@@H](C(=O)O)NC(=O)[C@H](CCC(N)=O)NC1=O [SySA-5.23] (H-CRVRLNRRGRKVSLQC-OH; disulfide 1-16) | > 128 mg/L | 8 mg/L |
| CC(C)C[C@@H]1NC(=O)[C@H](CO)NC(=O)[C@H](C(C)C)NC(=O)[C@H](CCCCN)NC(=O)[C@H](CCCNC(=N)N)NC(=O)CNC(=O)[C@H](CCCNC(=N)N)NC(=O)[C@H](CCCNC(=N)N)NC(=O)[C@H](CCCNC(=N)N)NC(=O)[C@H](CC(C)C)NC(=O)[C@H](CCCNC(=N)N)NC(=O)[C@H](C(C)C)NC(=O)[C@H](CCCNC(=N)N)NC(=O)[C@@H](N)CSSC[C@@H](C(=O)O)NC(=O)[C@H](CCCNC(=N)N)NC1=O [SySA-5.24] (H-CRVRLRRRGRKVSLRC-OH; disulfide 1-16) | > 128 mg/L | 16 mg/L |

Same assay, conditions: Mueller-Hinton; median of triplicate

| Molecule | AB5075 MIC MH |
| --- | --- |
| Protegrin-1 [reference compound] | 1 mg/L |

— publication PMC9833666, “Designing and identifying β-hairpin peptide macrocycles with antibiotic potential” (Science Advances, 2023)
